From patent publication US20250115600A1, “COVALENT MODIFIERS OF AKT1 AND USES THEREOF” (Terremoto Biosciences, Inc., priority 2022, published 2025)

Legend:
[1] = target: T1, AKT1 E17K (Homo sapiens (Human), UniProt P31749, E17K); assay: Live cell target engagement (NanoBRET) in HEK293 cells; assay type: cell-based
Target sequence in this assay (P31749 whole entry E17K): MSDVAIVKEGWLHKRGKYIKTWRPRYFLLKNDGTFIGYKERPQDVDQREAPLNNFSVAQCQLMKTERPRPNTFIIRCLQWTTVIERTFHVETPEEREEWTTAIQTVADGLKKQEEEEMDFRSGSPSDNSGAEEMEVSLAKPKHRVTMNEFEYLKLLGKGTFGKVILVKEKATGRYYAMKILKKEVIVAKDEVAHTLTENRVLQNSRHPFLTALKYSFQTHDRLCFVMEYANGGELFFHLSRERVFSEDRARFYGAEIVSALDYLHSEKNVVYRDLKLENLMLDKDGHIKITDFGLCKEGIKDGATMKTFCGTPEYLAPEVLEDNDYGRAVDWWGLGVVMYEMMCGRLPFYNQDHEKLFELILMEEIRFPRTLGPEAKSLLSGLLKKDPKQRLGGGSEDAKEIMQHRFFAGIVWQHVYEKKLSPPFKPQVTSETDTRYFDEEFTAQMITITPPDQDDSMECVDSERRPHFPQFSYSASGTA

[2] = target: AKT2 (Homo sapiens (Human), UniProt P31751); assay: as above; assay type: cell-based
[3] = target: T2, AKT1 WT (Homo sapiens (Human), UniProt P31749); assay: Intact mass spectrometry, covalent complex formation and ARQ-092 competition; assay type: binding; details: protein 1 μM, compound 1.5 μM, 2 hrs at 37° C., NaBH4 reduction; for covalent complex formation with AKT1 WT protein: absence of competitor; for covalent complex formation with AKT1 WT protein in presence of competitor: with ARQ092 (50 μM)
How it was run: (§1)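 AKT1 WT or E17K (1 μM) was incubated with compound (1.5 μM) for 2 hrs at 37° C., with or without ARQ092 (50 μM) competitor as specificity control. Imines were reduced with 5 mM NaBH4 for 5 min, quenched in acetonitrile+1% TFA, and covalent adducts read by intact-mass LCMS.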
Target sequence in this assay (P31749 2-480): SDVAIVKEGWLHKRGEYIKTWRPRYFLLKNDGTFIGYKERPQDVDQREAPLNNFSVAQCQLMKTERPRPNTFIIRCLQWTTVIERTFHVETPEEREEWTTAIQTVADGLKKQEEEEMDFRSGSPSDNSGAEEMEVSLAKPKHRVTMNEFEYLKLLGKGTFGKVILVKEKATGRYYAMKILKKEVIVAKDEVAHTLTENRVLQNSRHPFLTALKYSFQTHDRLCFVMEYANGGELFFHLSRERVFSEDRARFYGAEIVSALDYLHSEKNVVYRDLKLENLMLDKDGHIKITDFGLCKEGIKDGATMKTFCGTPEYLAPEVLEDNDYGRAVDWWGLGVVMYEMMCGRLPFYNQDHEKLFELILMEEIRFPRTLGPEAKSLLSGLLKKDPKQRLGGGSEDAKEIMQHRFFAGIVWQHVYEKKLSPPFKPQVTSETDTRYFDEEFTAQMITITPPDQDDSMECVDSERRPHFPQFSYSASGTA

[4] = target: AKT1 E17K mutant protein (Homo sapiens (Human), UniProt P31749, E17K); assay: as above; assay type: binding; details: for covalent complex formation with AKT1 E17K mutant protein / covalent complex formation with AKT1 E17K mutant protein in presence of competitor: protein 1 μM, compound 1.5 μM, 2 hrs at 37° C., NaBH4 reduction; for covalent complex formation with AKT1 E17K mutant protein: absence of competitor; for covalent complex formation with AKT1 E17K mutant protein in presence of competitor: with ARQ092 (50 μM)
How it was run: as §1

[5] = target: T2, AKT1 WT; assay: Dissociation rate by intact protein LCMS after ARQ092 chase; assay type: binding; details: compound 1.5 μM, 2 hours at 37° C., then ARQ092 50 μM
Description: (§2) AKT1 WT or AKT1 E17K (1 μM) were treated with a compound of Table 1 (1.5 μM) for 2 hours at 37° C., then ARQ092 (50 μM final concentration) was added to prevent aldehyde-containing compound rebinding after initial dissociation. At various timepoints, aliquots were removed and quenched with 5 mM NaBH4 for 5 min to capture the reversible imine through reductive amination. Reduction reactions were quenched by diluting the sample in equal volume acetonitrile+1% TFA, then analyzed by LCMS. Deconvoluted monoisotopic intensities of unmodified vs. compound-modified mass peaks were compared.
Target sequence in this assay (P31749 2-480): as above

[6] = target: T1, AKT1 E17K; assay: as above; assay type: binding; details: for AKT1 E17K t1/2: compound 1.5 μM, 2 hours at 37° C., then ARQ092 50 μM; for Off-rate Selectivity E17K/WT: ratio of t1/2
Description: as §2
Target sequence in this assay (P31749 2-480 E17K): as the sequence (P31749 2-480) above, with E16K counted along it

[7] = target: T2, AKT1 WT; assay: Live cell target engagement (NanoBRET) in HEK293 cells; assay type: cell-based
Target sequence in this assay (P31749 whole entry): as the sequence (P31749 whole entry E17K) above, with K17E counted along it

[8] = target: T2, AKT1 WT; assay: Dissociation rate of Compound A and Compound B by competition with ARQ-092, LCMS; assay type: binding; details: compound 5 μM, 15 minutes, then ARQ-092 50 μM; 25 mM HEPES pH 8.0, 150 mM NaCl
Description: (§3) Determination of compound dissociation rate by intact protein mass spectrometry:Recombinant AKT1 containing appropriate mutations (1 μM) was treated with inhibitor (5 μM) at room temperature. After 15 minutes, ARQ-092 (50 μM final concentration) was added to prevent aldehyde-containing compound rebinding after initial dissociation. At various timepoints, aliquots were removed and quenched with 5 mM NaBH4 to capture the reversible imine through reductive amination, then analyzed by LCMS. Deconvoluted monoisotopic intensities of unmodified vs. compound-modified mass peaks were compared.
(§4) AKT1(E17K or WT) (1 μM) was incubated with Compound A or Compound B (5 μM) for 15 minutes in 25 mM HEPES pH 8.0, 150 mM NaCl buffer. Then ARQ-092 (50 μM) was added and aliquots quenched with 5 mM NaBH4 at a series of timepoints and the percentage labelling determined by LCMS. FIG. 32A and FIG. 32B provide competition data (dissociation rates) for Compound A and Compound B in both wild-type AKT1 and AKT1 E17K against ARQ-092. Table 8 provides half-life data based on the dissociation studies described herein.
Target sequence in this assay (P31749 2-480): as the sequence (P31749 2-480) above

[9] = target: T1, AKT1 E17K; assay: as above; assay type: binding
Description: as §3, §4
Target sequence in this assay (P31749 2-480 E17K): as the sequence (P31749 2-480) above, with E16K counted along it

Chain of AKT1 E17K mutant protein (P31749 2-480 E17K): as the sequence (P31749 2-480) above, with E16K counted along it
Chain of AKT2 (P31751 whole entry): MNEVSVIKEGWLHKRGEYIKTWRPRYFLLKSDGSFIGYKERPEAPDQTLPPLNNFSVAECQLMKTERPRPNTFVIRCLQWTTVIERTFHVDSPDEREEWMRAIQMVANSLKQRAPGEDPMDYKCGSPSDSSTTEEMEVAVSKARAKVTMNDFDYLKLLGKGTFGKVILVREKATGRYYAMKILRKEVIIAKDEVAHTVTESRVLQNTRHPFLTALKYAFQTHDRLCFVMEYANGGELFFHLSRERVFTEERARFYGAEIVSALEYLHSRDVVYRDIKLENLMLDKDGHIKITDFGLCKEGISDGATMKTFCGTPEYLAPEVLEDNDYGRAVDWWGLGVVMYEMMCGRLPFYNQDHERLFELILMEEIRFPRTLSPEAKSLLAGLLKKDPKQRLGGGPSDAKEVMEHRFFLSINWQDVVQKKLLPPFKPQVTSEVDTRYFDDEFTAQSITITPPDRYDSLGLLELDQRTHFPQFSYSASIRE

Row | SMILES | AKT1 E17K IC50: Selectivity vs AKT1 WT [1] | AKT1 E17K IC50: Selectivity vs AKT2 [1] | IC50 ([1]; HEK293, 2 hours at 37° C.) [nM] | IC50 ([2]; HEK293, 2 hours at 37° C.) [nM] | covalent complex formation with AKT1 WT protein [3] | covalent complex formation with AKT1 WT protein in presence of competitor [3] | covalent complex formation with AKT1 E17K mutant protein [4] | covalent complex formation with AKT1 E17K mutant protein in presence of competitor [4] | AKT1 (WT) t1/2 [5] [min] | AKT1 E17K t1/2 [6] [min] | Off-rate Selectivity E17K/WT [6] | IC50 ([7]; HEK293, 2 hours at 37° C.) [nM] | selectivity of complex formation, AKT1 E17K versus AKT1 WT ([4]; comparison of the spectra without competitor) | IC50 ([1]; HEK293, 2 h at 37 C, Table 7) [nM] | IC50 ([2]; HEK293, 2 h at 37 C, Table 7) [nM] | AKT1 (WT) t1/2 [8] [min] | AKT1 E17K t1/2 ([9]; compound 5 μM, 15 minutes, then ARQ-092 50 μM, 25 mM HEPES pH 8.0, 150 mM NaCl) [min] | Off-rate Selectivity E17K/WT ([9]; ratio of t1/2) | IC50 ([7]; HEK293, 2 h at 37 C, Table 7) [nM]
1 | Nc1ncccc1-c1nc2cccnc2n1-c1ccc(CNC(=O)Cc2ccc(C=O)c(O)c2)cc1 [Compound 96, N-(4-(2-(2-aminopyridin-3-yl)-3H-imidazo[4,5-b]pyridin-3-yl)benzyl)-2-(4-formyl-3-hydroxyphenyl)acetamide] | 4.6 | 64 | < 100 | > 500 | significant presence of covalent complex | Essentially no covalent complex formation | significant presence of a covalent complex | Essentially little to no covalent complex formation | 10.7 | 55.5 | 5.2 | < 100 |  |  |  |  |  |  | 
2 | CC(=O)Nc1cc(CCNCc2ccc(-n3c(-c4cccnc4N)nc4ccc(-c5ccccc5)nc43)cc2)ccc1C=O [Compound 110, N-(5-(2-((4-(2-(2-aminopyridin-3-yl)-5-phenyl-3H-imidazo[4,5-b]pyridin-3-yl)benzyl)amino)ethyl)-2-formylphenyl)acetamide] | 1.2 | 5.3 | < 100 | < 100 | small presence of covalent complex | Essentially no covalent complex formation | significant presence of a covalent complex | Essentially little to no covalent complex formation | 4.9 | 43.2 | 8.8 | < 100 | selective for complex formation with AKT1 E17K |  |  |  |  |  | 
3 | Nc1ncccc1-c1nc2ccc(-c3ccccc3)nc2n1-c1ccc(CNCCc2ccc(C=O)cc2)cc1 [Compound 125, 4-(2-((4-(2-(2-aminopyridin-3-yl)-5-phenyl-3H-imidazo[4,5-b]pyridin-3-yl)benzyl)amino)ethyl)benzaldehyde] | 0.28 | 0.39 | 100 to 500 | 100 to 500 | only peaks corresponding to unmodified WT protein | only peaks corresponding to unmodified WT protein | presence of covalent complex | Essentially no covalent complex formation | 45.3 | 176 | 3.9 | 100 to 500 |  |  |  |  |  |  | 
4 | Nc1ncccc1-c1nc2ccc(-c3ccccc3)nc2n1-c1ccc(CNCCc2ccc(C=O)c(O)c2)cc1 [Compound 133, 4-(2-((4-(2-(2-aminopyridin-3-yl)-5-phenyl-3H-imidazo[4,5-b]pyridin-3-yl)benzyl)amino)ethyl)-2-hydroxybenzaldehyde] | 1.4 | 4.7 | < 100 | 100 to 500 | a noticeable level of covalent complex was formed | essentially no covalent complex formation | a covalent complex between Compound 133 and AKT1 E17K mutant protein was observed | essentially no covalent complex formation | 22.7 | 126 | 5.6 | < 100 |  |  |  |  |  |  | 
5 | C#Cc1cccc(-c2ccc3nc(-c4cccnc4N)n(-c4ccc(CNC(=O)c5ccc(C=O)c(O)c5)cc4)c3n2)c1 [Compound A, N-(4-(2-(2-aminopyridin-3-yl)-5-(3-ethynylphenyl)-3H-imidazo[4,5-b]pyridin-3-yl)benzyl)-4-formyl-3-hydroxybenzamide] |  |  |  |  |  |  |  |  |  |  |  |  |  | 100 to 500 | > 500 | 5 | 8.2 | 1.6 | < 100
6 | Nc1ncccc1-c1nc2ccc(-c3cccc(N4CCOCC4)c3)nc2n1-c1ccc(CNC(=O)Cc2ccc(C=O)c(O)c2F)cc1 [Example 21, N-({4-[2-(2-aminopyridin-3-yl)-5-[3-(morpholin-4-yl)phenyl]imidazo[4,5-b]pyridin-3-yl]phenyl}methyl)-2-(2-fluoro-4-formyl-3-hydroxyphenyl)acetamide] | 1.5 | 4.8 | < 100 | < 100 | significant presence of a covalent complex | Essentially no covalent complex formation | significant presence of a covalent complex | Essentially no covalent complex formation | 45.3 | 68.2 | 1.5 | < 100 |  |  |  |  |  |  | 
